Data reported in ChEMBL document CHEMBL4177615 (Bioorg Med Chem, 2017).

Tests used:
[1] = test system: Plasmodium falciparum; assay: Antimalarial activity against Plasmodium falciparum 3D7 infected in ARh+ human erythrocytes at 10 uM after 42 to 48 hrs by Picogreen staining-based 96 well microplate assay; type: functional; details: read-out: GI
[2] = test system: Plasmodium falciparum; assay: Antimalarial activity against Plasmodium falciparum 3D7 infected in ARh+ human erythrocytes at 1 uM after 42 to 48 hrs by Picogreen staining-based 96 well microplate assay; type: functional; details: read-out: GI
[3] = test system: Plasmodium falciparum; assay: Antimalarial activity against Plasmodium falciparum 3D7 infected in ARh+ human erythrocytes at 0.1 uM after 42 to 48 hrs by Picogreen staining-based 96 well microplate assay; type: functional; details: read-out: GI
[4] = test system: Plasmodium falciparum; assay: Antimalarial activity against Plasmodium falciparum 3D7 infected in ARh+ human erythrocytes at 0.01 uM after 42 to 48 hrs by Picogreen staining-based 96 well microplate assay; type: functional; details: read-out: GI
[5] = test system: Plasmodium falciparum; assay: Antimalarial activity against Plasmodium falciparum 3D7 infected in ARh+ human erythrocytes after 42 to 48 hrs by Picogreen staining-based 96 well microplate assay; type: functional, organism-based

Row | Compound | inhibition of growth at 10 µM [1] [%] | inhibition of growth at 1 µM [2] [%] | inhibition of growth at 0.1 µM [3] [%] | inhibition of growth at 0.01 µM [4] [%] | IC50 [5] [µM]
1 | Fc1ccc(Cn2c(NC3CCN(CCCc4ccccc4)CC3)nc3ccccc32)cc1 | 100 | 78 | 37 | 2 | 0.196
2 | Fc1ccc(Cn2c(NC3CCN(Cc4ccccc4)CC3)nc3ccccc32)cc1 | 94 | 29 | 2 | 2 | 1.9
3 | COc1ccc(CCN2CCC(Nc3nc4ccccc4n3Cc3ccc(F)cc3)C2)cc1 (stereo not given) | 67 | 14 | 0 | 0 | 5.32
4 | O=C(NCc1ccccc1)N1CCC(Nc2nc3ccccc3n2Cc2ccc(F)cc2)CC1 | 25 | 4 | 0 | 0 | > 10
5 | COCn1c(NC2CCN(CCc3ccc(OC)cc3)CC2)nc2ccccc21 | 64 | 5 | 0 | 0 | 6.74
6 | COc1ccc(OC)c(S(=O)(=O)N2CCC(Nc3nc4ccccc4n3Cc3ccc(F)cc3)CC2)c1 | 61 | 8 | 4 | 5 | 6.85
7 | O=C(N1CCOCC1)N1CCC(Nc2nc3ccccc3n2Cc2ccc(F)cc2)CC1 | 26 | 0 | 0 | 0 | > 10
8 | O=S(=O)(c1ccc(Cl)cc1)N1CCC(Nc2nc3ccccc3n2Cc2ccc(F)cc2)CC1 | 83 | 6 | 1 | 4 | 3.96
9 | O=C(c1ccc(F)cc1)N1CCC(Nc2nc3ccccc3n2Cc2ccc(F)cc2)CC1 | 51 | 6 | 0 | 0 | 10
10 | CC(C)CN1CCC(Nc2nc3ccccc3n2Cc2ccc(F)cc2)CC1 | 90 | 60 | 0 | 0 | 0.829
11 | CC(C)S(=O)(=O)N1CCC(Nc2nc3ccccc3n2Cc2ccc(F)cc2)CC1 | 11 | 1 | 3 | 2 | > 10
12 | COc1ccc(CCN2CCC(Nc3nc4ccccc4n3Cc3ccc(Br)cc3)CC2)cc1 | 97 | 100 | 47 | 0 | 0.111
13 | O=C(NCCc1ccccc1)N1CCC(Nc2nc3ccccc3n2Cc2ccc(F)cc2)CC1 | 49 | 15 | 1 | 8 | > 10
14 | O=C(Nc1ccc2c(c1)CCC2)N1CCC(Nc2nc3ccccc3n2Cc2ccc(F)cc2)CC1 | 66 | 5 | 2 | 1 | 6.28
15 | Cc1ccc(S(=O)(=O)N2CCC(Nc3nc4ccccc4n3Cc3ccc(F)cc3)CC2)cc1 | 55 | 10 | 7 | 8 | 8.29
16 | O=C(c1ccc(C(F)(F)F)cc1)N1CCC(Nc2nc3ccccc3n2Cc2ccc(F)cc2)CC1 | 66 | 6 | 0 | 3 | 6.18

Row | Compound | inhibition of growth at 10 µM [1] [%] | inhibition of growth at 1 µM [2] [%] | inhibition of growth at 0.1 µM [3] [%] | inhibition of growth at 0.01 µM [4] [%] | IC50 [5] [µM]
17 | O=C(c1ccccc1)N1CCC(Nc2nc3ccccc3n2Cc2ccc(F)cc2)CC1 | 18 | 8 | 0 | 5 | > 10
18 | CCC(CC)Cn1c(NC2CCN(CCc3ccc(OC)cc3)CC2)nc2ccccc21 | 95 | 100 | 16 | 0 | 0.24
19 | CCCn1c(NC2CCN(CCc3ccc(OC)cc3)CC2)nc2ccccc21 | 100 | 82 | 3 | 0 | 0.416
20 | Fc1ccc(Cn2c(NC3CCN(CC4CC4)CC3)nc3ccccc32)cc1 | 98 | 21 | 0 | 0 | 2.25
21 | O=C(Nc1ccccc1)N1CCC(Nc2nc3ccccc3n2Cc2ccc(F)cc2)CC1 | 35 | 7 | 3 | 0 | > 10
22 | O=C(Nc1ccc(F)cc1F)N1CCC(Nc2nc3ccccc3n2Cc2ccc(F)cc2)CC1 | 39 | 4 | 0 | 2 | > 10
23 | O=C(c1ccc(Cl)cc1)N1CCC(Nc2nc3ccccc3n2Cc2ccc(F)cc2)CC1 | 36 | 5 | 3 | 4 | > 10
24 | CCCCCCn1c(NC2CCN(CCc3ccc(OC)cc3)CC2)nc2ccccc21 | 100 | 100 | 95 | 6 | 0.029 to 0.03
25 | CC(C)(C)NC(=O)N1CCC(Nc2nc3ccccc3n2Cc2ccc(F)cc2)CC1 | 43 | 6 | 2 | 0 | > 10
26 | Fc1ccc(Cn2c(NC3CCN(CC4CCCCC4)CC3)nc3ccccc32)cc1 | 100 | 48 | 14 | 0 | 0.857
27 | COc1ccc(CCN2CCN(Cc3nc4ccccc4n3Cc3ccc(F)cc3)CC2)cc1 | 72 | 12 | 0 | 3 | 4.64
28 | COc1ccc(NC(=O)N2CCC(Nc3nc4ccccc4n3Cc3ccc(F)cc3)CC2)c(OC)c1 | 57 | 5 | 1 | 0 | 8.14
29 | Fc1ccc(Cn2c(NC3CCN(C/C=C/c4ccccc4)CC3)nc3ccccc32)cc1 | 100 | 55 | 12 | 1 | 0.718
30 | Fc1ccc(Cn2c(NC3CCN(CCc4ccccc4)CC3)nc3ccccc32)cc1 | 100 | 90 | 43 | 9 | 0.125
31 | CN1CCC(Nc2nc3ccccc3n2Cc2ccc(F)cc2)CC1 | 100 | 2 | 0 | 0 | 3.09
32 | COc1ccc(CCN2CCC(Nc3nc4ccccc4n3Cc3ccccc3)CC2)cc1 | 100 | 82 | 14 | 0 | 0.344
